Test results from patent US4251628A, “Substrates for angiotensin converting enzyme” (priority 1978, dated 1981).
Like-named read-outs stand apart in the source and are kept apart here. Ends that are not written are not given here. Peptide text beside a SMILES is read from it.

Experiments:
[1] = test system: angiotensin converting enzyme (ACE); details: buffer component / additive; cited from earlier work
[2] = test system: angiotensin converting enzyme (ACE); test: ACE-catalyzed hydrolysis: Km, pH, chloride and buffer dependence; format: biochemical
Source text: (§1) Reaction conditions optimal for carrying out an ACE catalyzed hydrolysis of a substrate of the present invention are the same as have been previously described for substrates known in the prior art. Detailed studies of optimal conditions using HipGlyGly as substrate have been reported by Dorer, et al. The pH optimum is approximately 8.0 although greater than 50% maximal activity is obtained in the pH range 7.0-9.0, in the presence of 1 M NaCl. […] The relationship between the chloride requirement and the ionic strength requirement has not been fully characterized. […] Phosphate is inhibitory. Hepes, bicine and barbital buffers are suitable for use but Hepes is preferred because it provides maximum activity. Preferred conditions of buffer composition, ionic strength, pH and temperature are described in Example 1. […] The pH range for usable enzyme activity is from pH 6.5 to pH 8.7, with a broad plateau of maximal activity ranging from pH 7.2 to pH 8.5. Optimal substrate concentration depends upon the apparent Km, for the substrate compared with the Km's of possible competing substances in the sample. A substrate having a relatively low Km, such as ^3 H-benzoylProPheArg (Km 2×10^-4 M) could be suitably used at a concentration less than its Km. A substrate having a higher Km might better be used at a concentration greater than its Km. […] Because its Km is the lowest of any of the substrates of the present invention, ^3 H-benzoylProPheArg is the most preferred substrate for assays where ACE activity is low and maximum sensitivity is desired. In addition to being less sensitive to competitive inhibition, assays carried out with this substrate are potentially able to measure lower levels of ACE than the other substrates disclosed herein. Additionally, its partition behavior in an aprotic organic solvent is extremely favorable: only about 3% entered ethyl acetate in a preliminary extraction experiment. The remnant product Benzoylproline was about 90% extracted.

[3] = Extraction (partition) into ethyl acetate; format: physicochemical
Source text: as §1
The remnant reaction product may be extracted from the reaction mixture by an aprotic organic solvent which affords a reasonably quantitative separation of product from substrate. The use of solvents which may interfere with the counting process is to be avoided. Ethyl acetate is preferred. Approximately 91% of ^3 H-Hippuric acid is extracted into ethyl acetate. Extraction may be carried out by any suitable means familiar to those skilled in the art, such as shaking, agitating, mixing and the like. Separation of the phases is conveniently accomplished by centrifugation. Centrifugation at 1000×G for ten minutes is preferred, either at room temperature or in a refrigerated centrifuge. In some cases, an emulsion will form which can be separated by a longer centrifugation step.
A control determination of background radioactivity was made using 50 μl. of reaction buffer instead of diluted serum in the reaction mixture. The purpose of this control was to determine the number of total counts attributable to background radiation, non-specific release of hippuric acid and the presence of unreacted substrate in the ethyl acetate phase. Less than 7% of the ^3 H-HipGly Gly entered the organic phase. Total radioactivity was determined by counting an amount of substrate equal to that used in the reaction mixture directly in the scintillation counter. […]

[4] = biological target: T1, angiotensin converting enzyme (ACE) (Homo sapiens, UniProt P12821); test: Hydrolysis of ^3H-BenzoylProPheArg by normal human serum: effect of various compounds; format: biochemical; details: ^3H-BenzoylProPheArg substrate
T1 construct: Serum was prepared from fresh whole blood by standard techniques; from tissue; host or cells: serum (unfractionated)
Experimental: Hydrolysis of […] ^3 H-BenzoylProPheArg using the standard reaction procedure of Example 1 with normal human serum as the ACE source was measured in the absence and in the presence of competing substrates and an inhibitor.

[5] = biological target: T2, serum angiotensin converting enzyme (ACE) (Homo sapiens, UniProt P12821); test: biochemical; format: biochemical; details: for ACE Activity as % of control: 60 min; for Mode of inhibition (in words): ACE catalyzed hydrolysis of ^3H-HipGlyGly
T2 construct: the activity observed with the present assay method in human serum is identical to ACE; from tissue; host or cells: human serum (unfractionated)
Experimental: The reaction buffer contains 0.05 M Hepes, 0.1 M sodium chloride and 0.6 M sodium sulphate at pH 8.0. (Pepes is N-2-Hydroxyethyl piperazine N'-2-ethane sulfonic acid.) The substrate, ^3 H-HipGlyGly was dissolved in reaction buffer at a concentration of 16 mM and a specific radioactivity of about 0.15 millicuries/millimole. Serum was prepared from fresh whole blood by standard techniques. […] Hemolyzed samples were not used in the assay. […] For the assay, 50 μl. of serum was diluted with 200 μl. of reaction buffer. All the reactions were carried out in glass tubes due to the potentially destructive action of ethyl acetate on plastic.
(§2) The reaction mixture was composed of 50 μl. of diluted serum, an appropriate amount of substrate solution depending on the final substrate concentration desired, and reaction buffer sufficient to give a total reaction volume of 100 μl. All reaction tubes were incubated for 60 minutes at 37° C. Reactions were terminated by the addition of 1.0 ml. of 0.1 N hydrochloric acid. The reaction mixture was then extracted with 1.0 ml. ethyl acetate, by rotary agitation for 4-5 seconds. The phases were separted by centrifugation at 1000×G for ten minutes. A 0.5 ml. sample of the ethyl acetate (upper) layer was removed and tranferred to a scintillation vial containing 10 ml. scintillation fluid. (Riafluor, Trademark, New England Nuclear Corp., Boston, Mass.)
A control determination of background radioactivity was made using 50 μl. of reaction buffer instead of diluted serum in the reaction mixture. The purpose of this control was to determine the number of total counts attributable to background radiation, non-specific release of hippuric acid and the presence of unreacted substrate in the ethyl acetate phase. […] Total radioactivity was determined by counting an amount of substrate equal to that used in the reaction mixture directly in the scintillation counter.
(§3) Reaction velocity, in terms of nanomoles of product formed per minute per ml of serum was calculated according to the following formula: [formula] In this formula, "nmoles" means nanomoles, "min" means minutes, "ml" means milliliters and "cpm" means radioactivity counts per minute. The factor of 2 is a correction for the aliquot size.
In this series of reactions, the procedure described in Ex. 1 was followed except that the substrate concentration was 8 mM throughout and specific inhibitor substances were added at the indicated final concentration. Bradykinin, angiotensin I, BPP5α and EDTA have been described hereinabove. BPP9α (SQ20881) is a nonapeptide from snake venom having the sequence <GluTryProArgProGlnIleProPro.
*Standard assay conditions as described in Example 1 were used.
**ΔCPM = (CPM of compound CPM of Blank)

[6] = biological target: T1, angiotensin converting enzyme (ACE); test: ACE assay: hydrolysis of ^3H-HipGlyGly by human serum, Lineweaver-Burke Km; format: biochemical; details: when about 20% or more of the substrate has been hydrolyzed
Experimental: The following sample illustrates the preferred assay method, the sensitivity of the assay and the Km for ^3 H-HipGlyGly. The reaction buffer contains 0.05 M Hepes, 0.1 M sodium chloride and 0.6 M sodium sulphate at pH 8.0. (Pepes is N-2-Hydroxyethyl piperazine N'-2-ethane sulfonic acid.) The substrate, ^3 H-HipGlyGly was dissolved in reaction buffer at a concentration of 16 mM and a specific radioactivity of about 0.15 millicuries/millimole. Serum was prepared from fresh whole blood by standard techniques. […] Hemolyzed samples were not used in the assay. Serum samples could be stored at least for one week at 2° C. to 8° C. or for at least 8 weeks frozen, prior to assaying. For the assay, 50 μl. of serum was diluted with 200 μl. of reaction buffer. All the reactions were carried out in glass tubes due to the potentially destructive action of ethyl acetate on plastic.
as §2
A control determination of background radioactivity was made using 50 μl. of reaction buffer instead of diluted serum in the reaction mixture. The purpose of this control was to determine the number of total counts attributable to background radiation, non-specific release of hippuric acid and the presence of unreacted substrate in the ethyl acetate phase. Less than 7% of the ^3 H-HipGly Gly entered the organic phase. Total radioactivity was determined by counting an amount of substrate equal to that used in the reaction mixture directly in the scintillation counter.
as §3, with “size. In the case where a significant fraction of substrate has been hydrolyzed, and the substrate in one which is more soluble in the organic phase, as for example, ^125 I-HPPGlyGlyGly, a modified formula is used to take account of the decreasing amount of substrate as the reaction progresses: [formula]” for “size.”
Reciprocal values of initial substrate concentration and reaction velocity were calculated and graphed according to the method of Lineweaver and Burke, as shown in FIG. 1. A straight line was obtained, which intercepted the ordinate at a value equal to the reciprocal of the maximum velocity of the enzyme reaction and intercepted the abcissa at a value equal to the negative reciprocal of the apparent Michaelis constant. […] It can be seen that reaction velocities as low as 12 nanomoles of substrate hydrolyzed per minute per ml. of serum can readily be measured.

[7] = 1 h, read-out: ACE Activity as % of control

T2 sequence (P12821 30-1232 limits assumed): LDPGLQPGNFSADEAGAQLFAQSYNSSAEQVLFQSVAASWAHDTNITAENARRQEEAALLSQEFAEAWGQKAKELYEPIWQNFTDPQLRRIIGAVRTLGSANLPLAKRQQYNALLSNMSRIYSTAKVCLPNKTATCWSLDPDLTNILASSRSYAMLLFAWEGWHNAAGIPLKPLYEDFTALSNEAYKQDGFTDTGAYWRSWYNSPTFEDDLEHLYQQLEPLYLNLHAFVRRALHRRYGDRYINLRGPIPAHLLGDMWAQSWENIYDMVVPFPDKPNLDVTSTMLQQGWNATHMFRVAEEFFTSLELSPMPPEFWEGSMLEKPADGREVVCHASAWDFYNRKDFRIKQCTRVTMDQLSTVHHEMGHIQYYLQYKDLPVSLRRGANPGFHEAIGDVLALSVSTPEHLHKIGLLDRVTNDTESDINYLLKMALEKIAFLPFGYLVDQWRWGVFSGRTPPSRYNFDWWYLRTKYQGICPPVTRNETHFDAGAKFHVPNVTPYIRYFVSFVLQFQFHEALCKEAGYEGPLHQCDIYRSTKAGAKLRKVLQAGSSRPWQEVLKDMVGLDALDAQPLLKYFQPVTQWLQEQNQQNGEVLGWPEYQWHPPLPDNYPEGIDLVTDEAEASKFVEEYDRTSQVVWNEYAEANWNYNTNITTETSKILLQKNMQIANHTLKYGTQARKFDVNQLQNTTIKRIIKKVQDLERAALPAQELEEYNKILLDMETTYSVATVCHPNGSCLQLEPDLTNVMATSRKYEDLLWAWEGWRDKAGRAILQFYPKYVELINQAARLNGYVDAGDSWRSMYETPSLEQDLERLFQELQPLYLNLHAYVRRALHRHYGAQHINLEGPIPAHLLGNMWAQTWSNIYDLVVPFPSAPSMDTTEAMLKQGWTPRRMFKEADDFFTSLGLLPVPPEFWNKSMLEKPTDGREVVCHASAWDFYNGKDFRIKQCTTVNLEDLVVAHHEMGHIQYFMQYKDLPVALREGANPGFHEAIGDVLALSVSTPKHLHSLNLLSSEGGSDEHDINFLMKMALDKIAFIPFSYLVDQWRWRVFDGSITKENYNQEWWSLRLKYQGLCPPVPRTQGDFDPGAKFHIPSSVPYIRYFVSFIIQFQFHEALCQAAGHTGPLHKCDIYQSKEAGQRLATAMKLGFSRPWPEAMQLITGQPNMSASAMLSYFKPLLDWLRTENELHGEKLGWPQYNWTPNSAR
T1 sequence (P12821 30-1232 limits assumed): as above

In the case of Phosphate, the “Inhibition of ACE (in words)” value [1] is given as “inhibitory”.

In the case of `[3H]c1ccc(C(=O)N2CCC[C@H]2C(=O)N[C@@H](Cc2ccccc2)C(=O)N[C@@H](CCCNC(=N)N)C(=O)O)cc1` [^3 H-BenzoylProPheArg, ^3 H-benzoylprolylphenylalanylarginine], the Km ([2]; ^3H-benzoylProPheArg as substrate) is reported as 200 µM, the “Chloride / ionic strength requirement of the ACE-catalyzed hydrolysis” value ([2]; by substrate) is reported as “chloride ions and high total ionic strength do not greatly affect the rate” and the “Fraction extracted into ethyl acetate” value [3] is reported as “about 3%”.

For “Angiotensin I: decapeptide angiotensin I, having the sequence AspArgValTyrIleHisProPheHisLeu (DRVYIHPFHL; printed: AspArgValTyrIleHisProPheHisLeu)”, the “ACE Activity As % of Control” value ([4]; 7.1 × 10^-5 M, 71 µM) was 27 % of Control, the “Δ CPM (counts per minute)” value ([5]; 4.5 × 10^-5 M, substrate 8 mM) was 1278 counts per minute and the “ACE Activity as % of control” value ([5]; 4.5 × 10^-5 M, substrate 8 mM, 45 µM) was 34 % of control. The “Δ CPM (counts per minute)” value ([5]; 9 × 10^-6 M, substrate 8 mM) was 2557 counts per minute, the “ACE Activity as % of control” value ([5]; 9 × 10^-6 M, substrate 8 mM, 9 µM) was 67 % of control and the “Δ CPM (counts per minute)” value ([5]; 9 × 10^-7 M, substrate 8 mM) was 3057 counts per minute. The “ACE Activity as % of control” value ([5]; 9 × 10^-7 M, substrate 8 mM, 0.9 µM) was 81 % of control and the “Mode of inhibition (in words)” value [5] was “competitive inhibitors”.

In the case of `O=C(O)[C@@H]1CCCN1C(=O)c1ccccc1` [Benzoylproline], the “Fraction extracted into ethyl acetate” value [3] is reported as “about 90%”.

For `NCC(=O)NCC(=O)O` [GlyGly] (H-Gly-Gly-OH), the “Product inhibition (in words)” value [6] was “Product inhibition has been observed”.

For `CC[C@H](C)[C@H](NC(=O)[C@H](CCC(N)=O)NC(=O)[C@@H]1CCCN1C(=O)[C@H](CCCNC(=N)N)NC(=O)[C@@H]1CCCN1C(=O)[C@H](Cc1c[nH]c2ccccc12)NC(=O)[C@@H]1CCC(=O)N1)C(=O)N1CCC[C@H]1C(=O)N1CCC[C@H]1C(=O)O` [BPP9α (SQ20881)], the remaining activity at 33 µM ([4]; 3.3 × 10^-5 M, read-out: ACE Activity As % of Control) was 28%, the “Δ CPM (counts per minute)” value ([5]; 2.8 × 10^-9 M, substrate 8 mM) was 2200 counts per minute and the “Δ CPM (counts per minute)” value ([5]; 9 × 10^-8 M, substrate 8 mM) was 1410 counts per minute. It also gave a remaining activity at 0.0028 µM [5, 7] of 58% and a remaining activity at 0.09 µM [5, 7] of 37%.

With `[3H]c1ccc(C(=O)NCC(=O)O)cc1` [^3 H-Hippuric acid, Hippuric acid (Benzoyl glycine)] the “Fraction extracted into ethyl acetate” value [3] was “Approximately 91%”.

In the case of `O=C(O)CN(CCN(CC(=O)O)CC(=O)O)CC(=O)O` [EDTA, Ethylene diamine tetraacetic acid], the “Inhibition of ACE (in words)” value [1] is given as “potent inhibitor of ACE”, the remaining activity at 1000 µM ([4]; 1 × 10^-3 M, read-out: ACE Activity As % of Control) is given as 23% and the “Δ CPM (counts per minute)” value [5] is given as 1178. The remaining activity at 900 µM [5, 7] was 31%.

With RPPGFSPFR [Bradykinin] the remaining activity at 82 µM ([4]; 8.2 × 10^-5 M, read-out: ACE Activity As % of Control) was 21%, the “Δ CPM (counts per minute)” value ([5]; 2.7 × 10^-5 M, substrate 8 mM) was 1553 counts per minute and the “Δ CPM (counts per minute)” value ([5]; 2.7 × 10^-6 M, substrate 8 mM) was 3165 counts per minute. For the same compound, the “Δ CPM (counts per minute)” value ([5]; 2.7 × 10^-7 M, substrate 8 mM) was 3267 counts per minute, the remaining activity at 0.27 µM [5, 7] was 86% and the remaining activity at 2.7 µM [5, 7] was 83%. The remaining activity at 27 µM [5, 7] was 41% and the “Mode of inhibition (in words)” value [5] was “competitive inhibitors”.
